In patent US20020192776A1, “Heliothis glutamate receptor” (Aventis Cropscience SA, priority 2000, published 2002):

Test system: lepidopteran glutamate-gated chloride channel
Assay: two-electrode voltage clamp recordings of Xenopus oocytes injected with HEGE2 mRNA
Format: cell-based, Heliothis virescens
Details: held at -80 mV
Method: Messenger RNA was produced from the cDNA template of HEGE2 by in vitro transcription with the Ambion mMESSAGE mMACHINE IN VITRO TRANSCRIPTION KIT (Ambion, Inc.). The mRNA was injected into oocytes by the following procedure.
Frogs were anesthetized in a 2 gram/liter solution of 3-amino benzoic acid ethyl ester for thirty minutes, after which oocytes were surgically removed from the abdominal cavity. Follicles were digested by collagenase treatment under sterile conditions by standard methods. Oocytes were injected with 50 nl of 1 μg/μl mRNA by glass electrodes.
After a 24 hr incubation, two-electrode voltage clamp recordings were made. Recordings were made using a Dagan, TEV200 voltage clamp interfaced with a MacLab4 data acquisition system running the MacLab Chart data acquisition/analysis software. Oocytes were positioned under a dissection scope under constant perfusion with frog saline (96 mM of NaCl, 2 mM of KCl, 1 mM of MgCl2, 1.8 mM of CaCl2 and 10 mM of HEPES, pH 7.5) using a Razel syringe perfusion pump. Model A99-FY at 93.9 cc/hr. Glass electrodes (A-M Systems. Inc. 1.5 mm×0.86 mm) were filled with 3 M KCl and resistance (a function of the diameter of the channel opening) was measured to be between 0.7 and 1.5 mega ohms. Both electrodes were inserted into the oocyte at opposite sides, the resting potential was recorded and the voltage clamp turned on. […]

Molecule	activation of current in oocytes (One micromolar Ivermectin phosphate, Xenopus oocytes expressing HEGE2)	activation of membrane (chloride) current (100 uM glutamate, Xenopus oocytes injected with 50 ng of HEGE2 mRNA, FIG. 1)
Ivermectin phosphate	slowly and irreversibly activated current	
N[C@@H](CCC(=O)O)C(=O)O [glutamate]		activate a membrane current
